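Interpolation was linear, between the two tested concentrations surrounding the appropriate level; five concentrations were tested over 48 hours in 96-well plates. Abbreviation: GI50, concentration required for 50% inhibition of growth.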 The source made the active and inactive calls. No stated cut-off is given here; in the data, active = GI50 up to about 1.1 µM and inactive = higher.
Columns and labels:
Assay in all cases: NCI tumour cell line growth inhibition, 48 h
[1] = tested on: A549
[2] = tested on: CCRF-CEM
[3] = tested on: DU-145
[4] = tested on: EKVX
[5] = tested on: HL-60
[6] = tested on: HOP-62
[7] = tested on: HOP-92
[8] = tested on: HT-29
[9] = tested on: K562
[10] = tested on: NCI-H226
[11] = tested on: NCI-H23
[12] = tested on: NCI-H460
[13] = tested on: OVCAR-5
[14] = tested on: SF-268
[15] = tested on: SK-MEL-28
[16] = tested on: SK-OV-3
[17] = tested on: SNB-19
[18] = tested on: U-251
[19] = tested on: UO-31
[20] = tested on: M19-MEL

| Structure (SMILES) | GI50 [1] | GI50 [2] | GI50 [3] | GI50 [4] | GI50 [5] | GI50 [6] | GI50 [7] | GI50 [8] | GI50 [9] | GI50 [10] | GI50 [11] | GI50 [12] | GI50 [13] | GI50 [14] | GI50 [15] | GI50 [16] | GI50 [17] | GI50 [18] | GI50 [19] | GI50 [20] |
| --- | --- | --- | --- | --- | --- | --- | --- | --- | --- | --- | --- | --- | --- | --- | --- | --- | --- | --- | --- | --- |
| CC1=C[C@@H]2[C@@H](CC(CO)=C[C@H]3[C@@H]4C(C)(C)[C@]4(OCC(C)C)[C@H](OCC(C)C)[C@@H](C)[C@]23O)C1=O | 0.578 µM (active) | 0.741 µM (active) | 3.2 µM (inactive) | 1.03 µM (active) | 0.495 µM (active) | 0.206 µM (active) | 1.44 µM (inactive) | 1.21 µM (inactive) | 0.137 µM (active) | 1.36 µM (inactive) | 1.91 µM (inactive) | 0.465 µM (active) | 2.23 µM (inactive) | 3.43 µM (inactive) | 1.3 µM (inactive) | > 8.32 µM (inactive) | > 6.01 µM (inactive) | 1.5 µM (inactive) | 2.22 µM (inactive) |  |
| N#Cc1c(N)nc(Nc2cccc3ccccc23)c(C#N)c1C#N | 5.71 µM (inactive) | 2.32 µM (inactive) | > 10 µM (inactive) | > 10 µM (inactive) | 1.88 µM (inactive) | 4.89 µM (inactive) |  | 6.11 µM (inactive) | 2.58 µM (inactive) | > 10 µM (inactive) | 3.61 µM (inactive) | 2.97 µM (inactive) | > 10 µM (inactive) | 3.68 µM (inactive) | 3.75 µM (inactive) | 3.94 µM (inactive) | > 10 µM (inactive) | 4.71 µM (inactive) | 3.82 µM (inactive) |  |
| COC(=O)C(NC(=O)c1ccccc1)C(c1c(O)cc(O)cc1O)P(=O)(OC)OC (stereo not given) | > 100 µM (inactive) | 32 µM (inactive) |  | > 100 µM (inactive) | 74 µM (inactive) | > 100 µM (inactive) | > 100 µM (inactive) | > 100 µM (inactive) | 27.2 µM (inactive) | > 100 µM (inactive) | 69.5 µM (inactive) | 95.3 µM (inactive) | > 100 µM (inactive) | > 100 µM (inactive) | > 100 µM (inactive) | > 100 µM (inactive) | > 100 µM (inactive) | > 100 µM (inactive) | > 100 µM (inactive) | > 100 µM (inactive) |
| COC(=O)CCC(=O)c1ccc2c(c1)CCC2 | > 100 µM (inactive) | > 100 µM (inactive) | > 100 µM (inactive) | > 100 µM (inactive) | > 100 µM (inactive) | > 100 µM (inactive) | > 100 µM (inactive) | > 100 µM (inactive) | > 100 µM (inactive) |  | > 100 µM (inactive) | > 100 µM (inactive) | > 100 µM (inactive) | > 100 µM (inactive) | > 100 µM (inactive) | > 100 µM (inactive) | > 100 µM (inactive) | > 100 µM (inactive) | > 100 µM (inactive) |  |
| O=C1C[C@@H]2[C@@H](C=CC23CCCC3)N1O | > 100 µM (inactive) | > 100 µM (inactive) |  | > 100 µM (inactive) | > 100 µM (inactive) | > 100 µM (inactive) |  | > 100 µM (inactive) | > 100 µM (inactive) | > 100 µM (inactive) | > 100 µM (inactive) | > 100 µM (inactive) | > 100 µM (inactive) | > 100 µM (inactive) | > 100 µM (inactive) | > 100 µM (inactive) | > 100 µM (inactive) | > 100 µM (inactive) | > 100 µM (inactive) | > 100 µM (inactive) |
| O=S(=O)(N=S(c1ccccc1)c1ccccc1)c1ccccc1 | > 100 µM (inactive) | > 100 µM (inactive) | > 100 µM (inactive) | > 100 µM (inactive) | > 100 µM (inactive) | > 100 µM (inactive) | > 100 µM (inactive) | > 100 µM (inactive) | > 100 µM (inactive) | > 100 µM (inactive) | > 100 µM (inactive) | > 100 µM (inactive) | > 100 µM (inactive) | > 100 µM (inactive) | > 100 µM (inactive) |  | > 100 µM (inactive) | > 100 µM (inactive) | > 100 µM (inactive) |  |
| N#CCCN(CCC#N)c1ccc(C(=N/c2ccc(Cl)cc2)/N=N/c2ccc(Cl)cc2)cc1 | 16.9 µM (inactive) | 35.2 µM (inactive) | 15.5 µM (inactive) | 18.7 µM (inactive) |  | 21.7 µM (inactive) | 19.2 µM (inactive) | 19.8 µM (inactive) | 32.5 µM (inactive) | 17.3 µM (inactive) | 17.5 µM (inactive) | 13.4 µM (inactive) | 17.2 µM (inactive) | 15.7 µM (inactive) | 59.2 µM (inactive) | 33 µM (inactive) | 24.2 µM (inactive) | 19 µM (inactive) | 15.2 µM (inactive) |  |
| NC(CCCCO)C(=O)O (stereo not given) | > 100 µM (inactive) | > 100 µM (inactive) | > 100 µM (inactive) | > 100 µM (inactive) | > 100 µM (inactive) | > 100 µM (inactive) | > 100 µM (inactive) | > 100 µM (inactive) | > 100 µM (inactive) | > 100 µM (inactive) | > 100 µM (inactive) | > 100 µM (inactive) | > 100 µM (inactive) | > 100 µM (inactive) | > 100 µM (inactive) | > 100 µM (inactive) | > 100 µM (inactive) | > 100 µM (inactive) | > 100 µM (inactive) |  |
| C=C1C(=O)O[C@@H]2[C@H](O)[C@@H](C)[C@@H]3C=CC(=O)[C@@]3(C)[C@H](OC(=O)C=C(C)C)[C@H]12 | 2.94 µM (inactive) | 0.183 µM (active) |  | 1.74 µM (inactive) | 0.2 µM (active) | 4.35 µM (inactive) | 0.944 µM (active) | 1.26 µM (inactive) | 0.199 µM (active) | 2 µM (inactive) | 1.35 µM (inactive) | 2.11 µM (inactive) | 2.52 µM (inactive) | 0.916 µM (active) | 0.514 µM (active) | 3.57 µM (inactive) | 5.55 µM (inactive) | 1.49 µM (inactive) | 2.82 µM (inactive) | 1.12 µM (active) |
| O=S(O)CCCCCSSSCCCCCS(=O)O |  | 6.59 µM (inactive) |  | > 100 µM (inactive) | 24.7 µM (inactive) | > 100 µM (inactive) |  | > 100 µM (inactive) | 14.6 µM (inactive) |  | 29.8 µM (inactive) | > 100 µM (inactive) | 85.5 µM (inactive) | 26.9 µM (inactive) | 39.8 µM (inactive) | > 100 µM (inactive) | > 100 µM (inactive) | 54.5 µM (inactive) | 35.3 µM (inactive) | 22.1 µM (inactive) |
| Nc1nc(=O)c2c([nH]1)NCC(CNc1ccc(C(=O)N[C@@H](CCC(=O)O)C(=O)O)cc1)N2C=O (stereo not given in full) [LEUCOVORIN CALCIUM] | > 125 µM (inactive) | 39.5 µM (inactive) |  | > 125 µM (inactive) | 39.5 µM (inactive) | > 125 µM (inactive) | > 125 µM (inactive) | > 125 µM (inactive) | 39.5 µM (inactive) | 81.1 µM (inactive) | > 125 µM (inactive) | > 125 µM (inactive) | > 95.3 µM (inactive) | > 125 µM (inactive) | > 125 µM (inactive) | > 125 µM (inactive) | > 125 µM (inactive) | > 125 µM (inactive) | > 125 µM (inactive) | > 125 µM (inactive) |
| CCCCCCCCCCCCCCCCCCOP(=O)([O-])OCC[N+](C)(C)C [OCTADECYLPHOSPHONOCHOLINE] | 1.35 µM (inactive) | 0.366 µM (active) |  | 2.14 µM (inactive) | 0.317 µM (active) | 0.301 µM (active) | 0.33 µM (active) | 0.608 µM (active) | 0.957 µM (active) | 0.787 µM (active) | 1.13 µM (inactive) | 0.41 µM (active) | 1.53 µM (inactive) | 0.807 µM (active) | 8.22 µM (inactive) | 5.69 µM (inactive) | 0.849 µM (active) | 0.695 µM (active) | 1.13 µM (inactive) | 4.24 µM (inactive) |

Reference: ChEMBL document CHEMBL1201862, “PubChem BioAssay data set” (2004)
